Three molecules from patent publication US7763612B2, “Therapeutic amine-arylsulfonamide conjugate compounds” (Algebra, Inc., priority 2006, dated 2010) can be followed below.

Like-named read-outs stand apart in the source and are kept apart here. A value given as a limit tells only on which side of the number the result lay.

In data set [1] the test system is tetrabenazine-induced behavioral effects. Briefly: Antitetrabenazine activity in the mouse (prevention of tetrabenazine-induced behavioral effects). Particulars: for ED50: Mus musculus, ip, read-out: ED50 (mg/kg i.p.), antitetrabenazine activity. It is filed as in vivo. From the text:
Substances having an antidepressant action antagonize a number of the behavioral effects induced by tetrabenazine including locomotor activity, ptosis and hypothermia. Tetrabenazine-induced behavioral effects can be quantified using a composite index, X, where X=(1−ptosis score)/(activity score*[Temp., treated/Temp., control]) as described by Cooper, B. R., J. L. Howard, and F. E. Soroko, Animal models used in prediction of antidepressant effects in man, Journal of Clinical Psychiatry 44:63-6, 1983). 50% effective dose (ED50) values indicate a dose of compound with ‘antitetrabenazine activity’ at which the composite index, X, induced by 20 mg/kg of tetrabenazine intraperitoneally is reduced 50%.
Prevention of tetrabenazine-induced behavioral effects were measured using a modification of the method of Vernier et al., First Hahnemann Symposium on Psychosomatic Medicine, ed. Nodim and Moyer, pub Lea and Febiger, Philadelphia 1962 as described previously (Cooper, B. R., J. L. Howard, and F. E. Soroko, Animal models used in prediction of antidepressant effects in man, Journal of Clinical Psychiatry 44:63-6, 1983). Mice, groups of 12 CD1 males each, were injected intraperitoneally (i.p.) with the compounds (1420), (20a) and furosemide (10) suspended in a 0.5% 4000-centipoise methyl cellulose solution at 3 mg/mL or vehicle. All injections were administered at a vehicle volume of 10 ml/kg. The 50% effective dose (ED50) of each compound was determined by linear regression analysis of log probit plots of dose effect curves and is reported in Table 3: […]

Another data set relates to Mice, CD1 males. Briefly: Safety and toxicity dose-ranging study, observation for seizures and deaths after oral administration. It is filed as in vivo, mouse. Particulars: CD1 male mice, p.o., doses up to 300 mg/kg, observed for one hour. The method, then:
Safety and Toxicity: Dose-ranging studies were performed to determine the range of safe doses for compound (1420). […] Mice, groups of 6 CD1 males each, were administered compound suspended in a 0.5% 4000-centipoise methyl cellulose vehicle at a volume of 10 mL/kg p.o. using a 22-gauge stainless steel mouse feeding tube and 1-mL syringe at doses up to 300 mg/kg.

Setting [2] is: CD1 male mice, i.p., dose at which composite index X induced by 20 mg/kg tetrabenazine i.p. is reduced 50%.

For the molecule `C[C@@H]1CO[C@@](O)(c2cc(F)cc(F)c2)[C@H](C)N1` [20a, (2S,3S,5R)-2-(3,5-difluorophenyl)-2-hydroxy-3,5-dimethylmorpholine], the “inhibition of tetrabenazine-induced behavioral effects” value in data set [1] (CD1 male mice, i.p.) is on record as “inhibited tetrabenazine-induced behavioral effects”. The ED50 in data set [1] is 0.2 mg/kg.
Turning to `NS(=O)(=O)c1cc(C(=O)O)c(NCc2ccco2)cc1Cl` [furosemide, 5-(aminosulfonyl)-4-chloro-2-[(2-furanylmethyl)amino]benzoic acid], the ED50 in data set [1] (setting [2]) was over 30 mg/kg.
In the case of `C[C@@H]1CO[C@@](O)(c2cc(F)cc(F)c2)[C@H](C)N1C(=O)OCOC(=O)c1cc(S(N)(=O)=O)c(Cl)cc1NCc1ccco1` [compound 1420, (2S,3S,5R)-4-[5-(aminosulfonyl)-4-chloro-2-[(2-furanylmethyl)amino]benzoyloxymethoxycarbonyl]-2-(3,5-difluorophenyl)-3,5-dimethyl-2-morpholinol], the “inhibition of tetrabenazine-induced behavioral effects” value in data set [1] (CD1 male mice, i.p.) was “inhibited tetrabenazine-induced behavioral effects”. In addition, the ED50 in data set [1] (setting [2]) was 3.6 mg/kg. Also, the “serious adverse events (seizures and deaths)” value in the data set on Mice, CD1 males was “No seizures or deaths were observed in any animals at any dose”.
